Test results from the supplement of paper PMC10307832.

What was measured:
Experiment in all cases: relative viability (nuclei count vs DMSO), 5 days (fraction); higher = more cells survive
NCI-H1666 = system: NCI-H1666
Procedure, shortened: (§1)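 For relative viability, nuclei counts in treated wells were divided by those in vehicle wells. Lung cancer cell lines had been pin-tool dosed in 1536-well plates the day after seeding and cultured for 5 days, then fixed and stained in one step (final 0.05% Triton X-100, 1% formaldehyde, 1 ug/ml Hoechst) and imaged at 4×. Doses were one drug alone or a fixed anchor-drug dose plus five library-drug doses (not always all listed) in √10 steps, and values are duplicate-plate medians.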

PC-14 = system: PC-14
Procedure, shortened: as §1

NCI-H2087 = system: NCI-H2087
Procedure, shortened: as §1

LC-2-ad = system: LC-2-ad
Procedure, shortened: as §1

HCC-78 = system: HCC-78
Procedure, shortened: as §1

NCI-H2405 = system: NCI-H2405
Procedure, shortened: as §1

COR-L 105 = system: COR-L 105
Procedure, shortened: as §1

EPLC-272H = system: EPLC-272H
Procedure, shortened: as §1

NCI-H23 = system: NCI-H23
Procedure, shortened: as §1

RERF-LC-KJ = system: RERF-LC-KJ
Procedure, shortened: as §1

NCI-H1915 = system: NCI-H1915
Procedure, shortened: as §1

201T = system: 201T
Procedure, shortened: as §1

NCI-H2126 = system: NCI-H2126
Procedure, shortened: as §1

NCI-H2347 = system: NCI-H2347
Procedure, shortened: as §1

H3255 = system: H3255
Procedure, shortened: as §1

NCI-H520 = system: NCI-H520
Procedure, shortened: as §1

NCI-H650 = system: NCI-H650
Procedure, shortened: as §1

NCI-H661 = system: NCI-H661
Procedure, shortened: as §1

ChaGo-K-1 = system: ChaGo-K-1
Procedure, shortened: as §1

NCI-H647 = system: NCI-H647
Procedure, shortened: as §1

LCLC-97TM1 = system: LCLC-97TM1
Procedure, shortened: as §1

HCC-827 = system: HCC-827
Procedure, shortened: as §1

## COc1cc2nccc(Oc3ccc(NC(=O)Nc4cc(C)on4)c(Cl)c3)c2cc1OC [Tivozanib] + Nc1ncn([C@H]2C[C@H](O)[C@@H](CO)O2)c(=O)n1 [Decitabine] (partner 2 µM)
NCI-H1666; first compound 0.005 µM
  relative viability: 0.664
NCI-H1666; first compound 0.01581 µM
  relative viability: 0.683
NCI-H1666; first compound 0.05 µM
  relative viability: 0.784
NCI-H1666; first compound 0.1581 µM
  relative viability: 0.665
NCI-H1666; first compound 0.5 µM
  relative viability: 0.643
PC-14; first compound 0.005 µM
  relative viability: 0.195
PC-14; first compound 0.01581 µM
  relative viability: 0.214
PC-14; first compound 0.05 µM
  relative viability: 0.216
PC-14; first compound 0.1581 µM
  relative viability: 0.252
PC-14; first compound 0.5 µM
  relative viability: 0.153
NCI-H2087; first compound 0.005 µM
  relative viability: 0.275
NCI-H2087; first compound 0.01581 µM
  relative viability: 0.249
NCI-H2087; first compound 0.05 µM
  relative viability: 0.352
NCI-H2087; first compound 0.1581 µM
  relative viability: 0.254
NCI-H2087; first compound 0.5 µM
  relative viability: 0.348
LC-2-ad; first compound 0.005 µM
  relative viability: 0.835
LC-2-ad; first compound 0.01581 µM
  relative viability: 0.681
LC-2-ad; first compound 0.05 µM
  relative viability: 0.77
LC-2-ad; first compound 0.1581 µM
  relative viability: 0.58
LC-2-ad; first compound 0.5 µM
  relative viability: 0.57
HCC-78; first compound 0.005 µM
  relative viability: 0.685
HCC-78; first compound 0.01581 µM
  relative viability: 0.807
HCC-78; first compound 0.05 µM
  relative viability: 0.733
HCC-78; first compound 0.1581 µM
  relative viability: 0.651
HCC-78; first compound 0.5 µM
  relative viability: 0.667
NCI-H2405; first compound 0.005 µM
  relative viability: 0.676
NCI-H2405; first compound 0.01581 µM
  relative viability: 0.771
NCI-H2405; first compound 0.05 µM
  relative viability: 0.756
NCI-H2405; first compound 0.1581 µM
  relative viability: 0.706
NCI-H2405; first compound 0.5 µM
  relative viability: 0.591
COR-L 105; first compound 0.005 µM
  relative viability: 0.677
COR-L 105; first compound 0.01581 µM
  relative viability: 0.638
COR-L 105; first compound 0.05 µM
  relative viability: 0.731
COR-L 105; first compound 0.1581 µM
  relative viability: 0.627
COR-L 105; first compound 0.5 µM
  relative viability: 0.628
EPLC-272H; first compound 0.005 µM
  relative viability: 0.342
EPLC-272H; first compound 0.01581 µM
  relative viability: 0.416
EPLC-272H; first compound 0.05 µM
  relative viability: 0.391
EPLC-272H; first compound 0.1581 µM
  relative viability: 0.409
EPLC-272H; first compound 0.5 µM
  relative viability: 0.365
NCI-H23; first compound 0.005 µM
  relative viability: 0.304
NCI-H23; first compound 0.01581 µM
  relative viability: 0.279
NCI-H23; first compound 0.05 µM
  relative viability: 0.3
NCI-H23; first compound 0.5 µM
  relative viability: 0.309
RERF-LC-KJ; first compound 0.005 µM
  relative viability: 0.585
RERF-LC-KJ; first compound 0.01581 µM
  relative viability: 0.646
RERF-LC-KJ; first compound 0.05 µM
  relative viability: 0.657
RERF-LC-KJ; first compound 0.1581 µM
  relative viability: 0.637
RERF-LC-KJ; first compound 0.5 µM
  relative viability: 0.723
NCI-H1915; first compound 0.005 µM
  relative viability: 0.281
NCI-H1915; first compound 0.01581 µM
  relative viability: 0.281
NCI-H1915; first compound 0.05 µM
  relative viability: 0.253
NCI-H1915; first compound 0.1581 µM
  relative viability: 0.293
NCI-H1915; first compound 0.5 µM
  relative viability: 0.268
201T; first compound 0.005 µM
  relative viability: 0.85
201T; first compound 0.01581 µM
  relative viability: 0.855
201T; first compound 0.05 µM
  relative viability: 0.87
201T; first compound 0.1581 µM
  relative viability: 0.854
201T; first compound 0.5 µM
  relative viability: 0.896
NCI-H2126; first compound 0.005 µM
  relative viability: 0.645
NCI-H2126; first compound 0.01581 µM
  relative viability: 0.584
NCI-H2126; first compound 0.05 µM
  relative viability: 0.612
NCI-H2126; first compound 0.1581 µM
  relative viability: 0.602
NCI-H2126; first compound 0.5 µM
  relative viability: 0.578
NCI-H2347; first compound 0.005 µM
  relative viability: 0.569
NCI-H2347; first compound 0.01581 µM
  relative viability: 0.594
NCI-H2347; first compound 0.05 µM
  relative viability: 0.62
NCI-H2347; first compound 0.1581 µM
  relative viability: 0.57
NCI-H2347; first compound 0.5 µM
  relative viability: 0.659
H3255; first compound 0.005 µM
  relative viability: 0.541
H3255; first compound 0.01581 µM
  relative viability: 0.592
H3255; first compound 0.05 µM
  relative viability: 0.591
H3255; first compound 0.1581 µM
  relative viability: 0.552
H3255; first compound 0.5 µM
  relative viability: 0.77
NCI-H520; first compound 0.005 µM
  relative viability: 0.442
NCI-H520; first compound 0.01581 µM
  relative viability: 0.448
NCI-H520; first compound 0.05 µM
  relative viability: 0.444
NCI-H520; first compound 0.1581 µM
  relative viability: 0.56
NCI-H520; first compound 0.5 µM
  relative viability: 0.351
NCI-H650; first compound 0.005 µM
  relative viability: 0.296
NCI-H650; first compound 0.01581 µM
  relative viability: 0.299
NCI-H650; first compound 0.05 µM
  relative viability: 0.35
NCI-H650; first compound 0.1581 µM
  relative viability: 0.312
NCI-H650; first compound 0.5 µM
  relative viability: 0.294
NCI-H661; first compound 0.005 µM
  relative viability: 0.527
NCI-H661; first compound 0.01581 µM
  relative viability: 0.557
NCI-H661; first compound 0.05 µM
  relative viability: 0.592
NCI-H661; first compound 0.1581 µM
  relative viability: 0.514
NCI-H661; first compound 0.5 µM
  relative viability: 0.552
ChaGo-K-1; first compound 0.005 µM
  relative viability: 0.458
ChaGo-K-1; first compound 0.01581 µM
  relative viability: 0.498
ChaGo-K-1; first compound 0.05 µM
  relative viability: 0.515
ChaGo-K-1; first compound 0.1581 µM
  relative viability: 0.543
ChaGo-K-1; first compound 0.5 µM
  relative viability: 0.489
NCI-H647; first compound 0.005 µM
  relative viability: 0.361
NCI-H647; first compound 0.01581 µM
  relative viability: 0.362
NCI-H647; first compound 0.05 µM
  relative viability: 0.302
NCI-H647; first compound 0.1581 µM
  relative viability: 0.315
NCI-H647; first compound 0.5 µM
  relative viability: 0.394
LCLC-97TM1; first compound 0.005 µM
  relative viability: 0.215
LCLC-97TM1; first compound 0.01581 µM
  relative viability: 0.22
LCLC-97TM1; first compound 0.05 µM
  relative viability: 0.297
LCLC-97TM1; first compound 0.1581 µM
  relative viability: 0.221
LCLC-97TM1; first compound 0.5 µM
  relative viability: 0.19
HCC-827; first compound 0.005 µM
  relative viability: 0.264
HCC-827; first compound 0.01581 µM
  relative viability: 0.345
HCC-827; first compound 0.05 µM
  relative viability: 0.311
HCC-827; first compound 0.1581 µM
  relative viability: 0.289
HCC-827; first compound 0.5 µM
  relative viability: 0.268
